Reference: US8318899B2, “Lytic domain fusion constructs and methods of making and using same” (Board of Supervisors of Louisiana State University and …, priority 2008, dated 2012)
Entries after “also recorded” stand apart in the source; their conditions may differ.

Legend:
MDA-MB-435S.luc cells = assay: Cell toxicity (MTT) screening in MDA-MB-435S.luc breast cancer cells; format: cell-based, human; details: relative to Phor21-βCG-ala (IC50 2.31 μM)
From the text: The human breast cancer cell line MDA-MB-435S.luc, which over expresses chorionic gonadotrophin (CG) and luteinizing hormone-releasing hormone (LHRH) receptors, was used to screen at passage numbers 248-252. The MDA-MB-435S.luc cell line was constructed from the MDA-MB-435S cell line obtained from the American Type Cell Culture Collection by stable transfection with the plasmid PRC/CMV-luc containing the Photinus pyralis luciferase gene and an […] by lipofection. The stably transfected cell line was selected using G418 and the clones with the highest expression for the luciferase gene were tested for their LH and LHRH receptor expression.
MDA-MB435S.luc cells were grown in Leibovitz's L 15 medium, 10% fetal bovine serum, 0.01 mg/ml bovine insulin, 100 IU/ml penicillin, 100 microg/ml streptomycin. The cells were cultured in tight closed flasks. The incubations were conducted using 96 well plates at 10,000 cells per well. Cells were typically seeded into 96 well plates and media was replaced after 48 hours of incubation. Each assay was conducted at increasing concentrations of 0, 0.001, 0.01, 0.05, 0.1, 0.5, 1, 2, 5, 10 and 100 micromolar doses of lytic peptide-binding domain conjugate. […]
Data were processed and analyzed using Graph Pad Prizm 4™ software (Graph Pad Prizm, Inc). Statistical analysis for significance was determined by a two-tailed Student's T-test. […]

OVCAR-3 = assay: IC50 in OVCAR-3 ovarian cancer cell line; format: cell-based, human
Protocol: MDA-MB435S.luc cells were grown in Leibovitz's L 15 medium, 10% fetal bovine serum, 0.01 mg/ml bovine insulin, 100 IU/ml penicillin, 100 microg/ml streptomycin. The cells were cultured in tight closed flasks. The incubations were conducted using 96 well plates at 10,000 cells per well. Cells were typically seeded into 96 well plates and media was replaced after 48 hours of incubation. Each assay was conducted at increasing concentrations of 0, 0.001, 0.01, 0.05, 0.1, 0.5, 1, 2, 5, 10 and 100 micromolar doses of lytic peptide-binding domain conjugate. Each lytic peptide-binding domain conjugate provided in lyophilized form and was freshly dissolved in saline and added to cells. The duration of incubation was typically 24 h, and cell viability assays were conducted using formazan conversion assays (MTT assay). Controls contained saline or 0.1% triton as reference for 0 and 100% cell death, respectively.
To ascertain the IC50 of various fusion constructs on different human cancer cell lines compared to cisplatinum, IC50 of fusion constructs were evaluated as in Table 3.

[1] = test system: MDA-MB-435S.luc xenograft; assay: MDA-MB-435S.luc xenograft, LHRH fusion constructs; format: in vivo, Nu/Nu mice
Protocol: For LHRH fusion constructs, the mouse xenograft model for breast cancer was used. In brief, Nu/Nu female mice, outbred strain, age 5 weeks (Charles River) were injected subcutaneously with a MDA-MB-435S.luc/Matrigel suspension (1×10^6 cells). Treatment was started on day 21 after tumor cell injection and continued on day 26 and 29. The doses for weekly fusion construct injections were 2, 0.2 and 0.02 mg/kg body weight, given as a bolus single injection. All mice were necropsied 34 days after tumor cell injection-baseline values for tumor weights were obtained by sacrificing 8 mice at treatment start. […] Tumor weights were recorded at necropsy, part of the tumors were frozen at −80° C. for luciferase assay determination.
Characteristics of tumors at necropsy are summarized in FIG. 10: (A) tumor weight, (B) changes of tumor weights compared to baseline, (C) total number of live tumor cells, (D) changes of total live tumor cells compared to baseline, and (E) body weights at baseline and necropsy. Viability of tumor cells was determined at the end of the study when tumors were measured for luciferase activity. Treatment efficacy was calculated as difference between measurements at the beginning of treatment compared to the measurement at the end of study (FIGS. 10B and 10D).

OVCAR-3 cells = format: cell-based, human; details: OVCAR-3 p47, series with increasing incubation time (times not given per value)
From the text: Membranes of non-cancerous cell lines are neutral and are resistant to cytolytic peptides, in contrast to cancer cell lines, which have a high phosphatidic acid content in their outer membrane.
(§1) The breast cancer cell lines studied were MDA-MB435S (estrogen receptor alpha negative), MCF-7 and T47D (estrogen receptor alpha positive), ovarian cancer cell lines (OVCAR-3 and SKOV-3), prostate cancer (LNCaP), the non-malignant breast epithelial cell line MCF-10A and the mouse fibroblast cell line NIH:3T3.
Cells were seeded into 96 well plates at a density of 10,000 cells/well. […] Controls contained USP saline or 0.1% TritonX-100™ as reference for 0 and 100% cell death, respectively. […] Cell viability was assessed through formazan conversion assay (MTT assay, (CellTiter 96 Aqueous One, Promega # G3582). Formazan conversion was determined using a BioRad Benchmark Plus microplate spectrophotometer dual wavelengths at 490/630 nm at room temperature).
(§2) Data were calculated as fraction of absorption in TritonX-100™ containing wells representing 100% cell death versus 0% cell death in saline containing wells. Cytotoxicity was determined as IC50 using GraphPad Prism version 5.01 for Windows, GraphPad Software, San Diego Calif. […] 4 wells of each individual set of two 96 well plates were compared and analyzed. Statistical analysis for significance was determined by a two-tailed Student's T-test.

NIH:3T3 = format: cell-based, mouse; details: non cancerous cell line 3T3
Protocol: as §1
Cells were seeded into 96 well plates at a density of 10,000 cells/well. […] Controls contained USP saline or 0.1% TritonX-100™ as reference for 0 and 100% cell death, respectively. Incubations were terminated by removing the culture media after 2 minutes, 5 minutes, 15 minutes, 30 minutes, 1 hour, 2 hours, 6 hours, 24 and 48 hours. Cell viability was assessed through formazan conversion assay (MTT assay, (CellTiter 96 Aqueous One, Promega # G3582). Formazan conversion was determined using a BioRad Benchmark Plus microplate spectrophotometer dual wavelengths at 490/630 nm at room temperature).
as §2

MDA-MB-435 cells = assay: Fluorescence microscopy, MDA-MB-435 breast cancer cells; format: cell-based, human; details: 10 μM, 5 minutes exposure
Protocol: In brief, human breast cancer cells (MDA-MB435, passage #252) were seeded onto culture dishes. The following markers were introduced prior to adding EP100: DRAQ5™ (Alexis Corporation)—blue—was used for staining of the nucleus and MitoTracker® Red CMXRos (M7512) (Molecular Probes, Inc. OR) were applied for visualizing intact mitochondria. Cell membranes were stained with wheat germ alexa fluor green conjugates (Molecular Probes, Inc. OR).
Cells were loaded first with Mitotracker dye, according to the manufacturers recommendation. […] Culture dishes with saline only served as controls. The supernatant was removed and the remaining cells prepared for fluorescence microscopy imaging.

MDA-MB-435S xenograft [2] = assay: MDA-MB-435S xenograft, once weekly for 3 weeks (minimal effective dose); format: in vivo, Nu/Nu mice; details: H&E
Protocol: (§3) In vivo efficacy studies were conducted as monotherapy, or a combination therapy with standard of care treatments in nude mice bearing human breast cancer xenografts: MDA-MB435S.luc (s.c.), MCF-7 (estrogen receptor alpha positive), human ovarian cancer xenografts: OVCAR-3, (s.c.), human prostate cancer xenografts: PC-3 (androgen receptor negative).
(§4) Mice were sacrificed one week after the last injection and blood collected for chemistry panel, tumor weights and body weights were recorded. Part of the tumors were fixed in PBS buffered 10% formalin for histological evaluation.
To determine the minimal effective dose necessary to reduce MDA-MB-435S xenograft weights in a single dose regimen, Nu/Nu female mice, outbred strain, age 5 weeks (Charles River), were injected (s.c.) into the interscapular region with a MDA-MB435S (passage #249)/Matrigel suspension (2.4×10^6 cells/mouse) [Leuschner 2006].
Each group consisted of 16 mice, which were injected once a week for 3 weeks. […] During the entire study tumor volumes were recorded twice weekly. […]
Treatment response was determined by tumor weights and tumor weight change at necropsy compared to saline controls and untargeted CLIP71 treatment. […] Statistical evaluation of data sets were conducted in GraphPad Prizm 4 and significance calculated by Wilcoxon signed-rank test.

MDA-MB435S xenograft = assay: MDA-MB435S xenograft, multiple dose regimen; format: in vivo, Nu/Nu mice; details: 0.002 and 0.2 mg/kg, multiple i.v. injections
Protocol: In order to determine the minimal effective dose necessary to reduce MDA-MB435S xenograft weights in a multiple dose regimen, Nu/Nu female mice, outbred strain, age 8 weeks (Charles River), were injected (s.c.) into the interscapular region with a MDA-MB435S (passage #253)/Matrigel suspension (2×10^6 cells/mouse) as previously described above. […] The doses were given as a single bolus intravenous injection via lateral tail vein on days 15, 16, 17, 20, 21, 22, 23, 27, 28, 29, 30, 33, 34, 35, 36, 37, 38, 40, 41, 42 after tumor cell inoculation. Saline injections served as control groups.
Each treatment group consisted of 16 mice. During the entire study tumor volumes were recorded twice weekly. Final necropsy was conducted on day 45 after tumor cell injection. […] due to occlusion of the tail vein in most mice. At study endpoint body weight, tumor weights were determined and fixed in phosphate buffered 10% formalin.

MDA-MB-435S xenograft [3] = assay: MDA-MB-435S xenograft, kinetics after a single injection; format: in vivo, Nu/Nu mice; details: single i.v. injection 0.2 and 2 mg/kg
Protocol: In brief, Nu/Nu female mice, outbred strain, age 5 weeks (Charles River), were injected (s.c.) into the interscapular region with a MDA-MB-435 S (passage #249)/Matrigel suspension (2.4×10^6 cells/mouse) as described in Example 10. […] The doses were given as a single bolus intravenous injection via lateral tail vein.
Mice were sacrificed 1, 2 and 16 hours after treatment with Phor 18-LHRH (338613) or saline. At study endpoint body weight, tumor weights were determined and tumors were fixed in phosphate buffered 10% formalin.

NIH:OVCAR-3 xenograft = assay: OVCAR-3 ovarian cancer xenograft; format: in vivo; details: for tumor volume during treatment: Phor18-LHRH 0.02-2 mg/kg, CLIP71 2 mg/kg, cisplatinum 10 mg/kg; for tumor weights at necropsy: mouse, in vivo
Protocol: The xenograft model of the OVCAR-3 human ovarian cancer cell line that present functional LHRH receptors was used in this study. OVCAR-3 represents a slow growing xenograft model and secretes the tumor marker (cancer antigen 125, or […]). It's secretion can be used as treatment response and is a measure of drug activity.
In brief, Nu/Nu female mice, inbred strain, age 5 weeks (Harlan-Sprague Dawley) were injected subcutaneously with a NIH:OVCAR-3 cells/Matrigel suspension (4.6×10^6 cells/mouse). Treatment was started on day 33 after tumor cell injection when the tumors were established and continued on days 41 and 47. The doses for the 3 weekly injections were 0.02, 0.2 and 2 mg/kg body weight, given as a single bolus intravenous injection via lateral tail vein administered once a week for three weeks on days 33, 41 and 47. Necropsies were conducted on day 52. Data are presented as mean SEM. Arrows show dosing.
A group of 9 tumor bearing mice was sacrificed on day 33 and served as baseline group. All mice were necropsied 51-52 days after tumor cell injection. Tumor volumes and bodyweights were recorded twice weekly during the study, as well as overall veterinarian examination of mice was conducted.
(§5) Primary tumors, liver, kidney, pancreas, heart, lung, and spleen were collected, fixed in formalin and prepared for histological evaluation. Tumor weights were measured at necropsy, part of the tumors were frozen at −80° C. for LH/CG and LHRH receptor assay determination.
As a biomarker for drug activity, CA125 was determined in serum, collected from each individual mouse at necropsy using a Enzyme Linked Immunoassay for quantitative determination of ovarian cancer antigen CA125 (Assay kit Genway, Biotech, Inc. San Diego, Calif., Catalog #40-052-115009, # BC-1013 according to the manufacturer).
LHRH receptor levels were assessed from formalin fixed tumors. Quantitative immunoperoxidase image analysis was conducted with the Ventana Image Analysis System (VIAS) adjunctive computer assisted image analysis system functionally connected to an interactive microscope (Axio Imager). The quantitative analysis was conducted with the program for quantification of Her2/neu receptor that included morphometric and colorimetric analysis. Receptor status results were reported as percentage of cells showing positive staining of the LHRH receptors under the following criteria: 0 non-immunoreactive, 1+: 1-25% positive, 2+: 26-50% positive, 3+: 51-75% positive cells.

PC-3 xenograft = assay: PC-3 prostate cancer xenograft; format: in vivo, Nu/Nu mice
Protocol: PC-3 xenografts untreated cause significant weight loss in mice.
In brief, Nu/Nu male mice, outbred strain, age 6 weeks (Charles River) were injected subcutaneously with a PC-3 cells/Matrigel suspension (1×10^6 cells/mouse). Treatment was started on day 15 after tumor cell injection when the tumors were established and continued on days 22 and 29. […]
A group of 12 tumor bearing mice was sacrificed on day 15 and served as baseline group. All mice were necropsied 35 and 36 days after tumor cell injection. Tumor volumes and bodyweights were recorded twice weekly during the study, as well as overall veterinarian examination of mice was conducted.
as §5

MCF-7 xenograft = assay: MCF-7 breast cancer xenograft; format: in vivo, nude mice; details: 2 × 3 wk, 19 d, growth delay
Protocol: as §3
PHOR 18-LHRH (338613) Combination therapies were conducted in a MCF-7 breast cancer xenograft models.
as §4

Row | Compound | Increased in vitro activity fold (IC50 of 33/IC50 peptide) (MDA-MB-435S.luc cells) [fold] | IC50 (OVCAR-3) [nM] | tumor volume during treatment / 30 days ([1]; 0.02, 0.2, 2 mg/kg weekly) | overall efficacy in reducing tumor weight and live tumor cells (vs other constructs / reference Phor21-βCG-ala) ([1]; mouse, in vivo) | IC50 (OVCAR-3 cells) [nM] | IC50 (NIH:3T3) [nM] | effect on plasma membrane (fluorescence microscopy) (MDA-MB-435 cells) | dose with significant necrosis in tumors (histology) (MDA-MB-435S xenograft [2]) [mg/kg] | tumor response (MDA-MB435S xenograft) | time after injection to destruction of tumors (histology) (MDA-MB-435S xenograft [3]) [hour] | dose with significant necrosis in tumor sections (NIH:OVCAR-3 xenograft; H&E) [mg/kg] | Median Tumor Weight vs Baseline p < 0.05 (dose) (NIH:OVCAR-3 xenograft; OVCAR-3 xenograft, 1 × 3 wk, 20 d) [mg/kg] | tumor volume during treatment (NIH:OVCAR-3 xenograft) | serum CA125 (NIH:OVCAR-3 xenograft; greatest at 0.2 and 2 mg/kg (p<0.0002 vs saline)) | tumor weights at necropsy (NIH:OVCAR-3 xenograft) | Median Tumor Weight vs Baseline p < 0.05 (dose) (PC-3 xenograft; PC-3 xenograft, 1 × 3 wk, 21 d) [mg/kg] | tumor volume during treatment (PC-3 xenograft; Phor18-LHRH 0.002-2 mg/kg, CLIP71 5 mg/kg) | Median Tumor Weight vs Saline P < 0.05 (dose) (MCF-7 xenograft) [mg/kg growth] | tumor volume during treatment (NIH:OVCAR-3 xenograft; listed as cisplatinum)
1 | KFAKFAKKFAKFAKKFAKQHWSYGLRPG [Phor18-LHRH] | 2.65 | 3000 ± 500 | smallest tumor volumes | Equally effective | 500 | > 10000 | disintegration of the plasma membrane | 0.0002 | tumor regression at both dose levels; also recorded: eradication of tumor cells | 1 | 0.02 | 0.2 | Tumor volumes decreased during treatment | CA125 secretion was reduced | Tumor free mice were found | 0.2 | Tumor volumes decreased during treatment | 0.02 | 
2 | N.N.[Cl][Pt][Cl] [Cisplatinum, reference compound] |  |  |  |  |  |  |  |  |  |  |  |  | no reduction in tumor volume |  | not effective in reducing tumor weights |  |  |  | tumor growth was observed
